Test results reported in PMC3621123 (Journal of medicinal chemistry, 2013).
Values joined by “and” are separate entries in the source; they are usually repeats but may differ in a detail not shown here. Equal entries are not always repeated. Where two headings read alike, the source gives them in different places.

Assays:
[1] = target: T1, BasE (Acinetobacter baumannii, UniProt A0A0D5YGP3); assay: biochemical; type: binding; conditions: for Kd: KD (nM) BasE, FP displacement, 20 nM Fl-Sal-AMS 14, 200 nM BasE, pH 7.5, 25 °C; for fold increase in affinity toward BasE relative to 15: ratio of KD of lead compound 15 to compound; for fold loss of affinity/potency toward BasE relative to 15: ratio of KD to lead compound 15
[2] = target: T1, BasE; conditions: read-out: KD1, equilibrium dissociation constant of probe 14 for BasE; cited from earlier work
[3] = target: MbtA (Mycobacterium tuberculosis, UniProt P71716); assay: Fluorescence polarization displacement of Fl-Sal-AMS 14 from MbtA; type: binding; conditions: for fold loss of affinity toward MbtA relative to 15: ratio of KD to lead compound 15
[4] = test system: A. baumannii; conditions: ref unpublished results, Brian Beck, Laura Celia, ATCC; cited from earlier work
[5] = test system: K. pneumoniae; conditions: ref unpublished results, Brian Beck, Laura Celia, ATCC; cited from earlier work
[6] = test system: E. coli; conditions: ref unpublished results, Brian Beck, Laura Celia, ATCC; cited from earlier work
[7] = test system: P. aeruginosa; conditions: ref unpublished results, Brian Beck, Laura Celia, ATCC; cited from earlier work

MbtA, sequence (P71716 whole entry): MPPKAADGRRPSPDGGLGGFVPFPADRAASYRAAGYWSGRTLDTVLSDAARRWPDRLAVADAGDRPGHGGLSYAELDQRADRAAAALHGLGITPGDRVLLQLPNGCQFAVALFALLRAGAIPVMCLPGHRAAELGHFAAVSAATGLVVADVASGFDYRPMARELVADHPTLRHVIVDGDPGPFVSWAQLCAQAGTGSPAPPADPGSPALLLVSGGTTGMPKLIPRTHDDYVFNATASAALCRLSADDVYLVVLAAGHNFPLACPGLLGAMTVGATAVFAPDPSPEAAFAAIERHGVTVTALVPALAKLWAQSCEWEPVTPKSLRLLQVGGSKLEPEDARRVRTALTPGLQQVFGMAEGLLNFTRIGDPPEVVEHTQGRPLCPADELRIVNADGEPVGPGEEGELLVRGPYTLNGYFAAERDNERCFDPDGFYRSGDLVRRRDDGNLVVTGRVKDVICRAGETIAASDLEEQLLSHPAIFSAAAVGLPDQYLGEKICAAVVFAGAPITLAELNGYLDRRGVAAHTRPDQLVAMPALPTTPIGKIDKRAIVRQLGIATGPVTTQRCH

In the case of `O=C(O)c1cc(-c2ccc(O)cc2)nc2c1cnn2Cc1ccncc1` [Compound 42, 6-(4-Hydroxyphenyl)-1-(pyridin-4-ylmethyl)-1H-pyrazolo[3,4-b]pyridine-4-carboxylic acid], the Kd [1] is reported as under 10 nM and the “fold increase in affinity toward BasE relative to 15” value [1] is reported as “more than 4 fold”.

In the case of `O=C(O)c1cc(-c2ccco2)nc2c1cnn2Cc1ccncc1` [Compound 75], the “fold loss of affinity/potency toward BasE relative to 15” value [1] is reported as ~ 10 fold.

With `O=C(O)c1cc(-c2cccc(Cl)c2)nc2c1cnn2Cc1ccncc1` [Compound 45] the Kd [1] was under 10 nM and the “fold increase in affinity toward BasE relative to 15” value [1] was “more than 4 fold”.

In the case of `COc1ccc(COc2ccc(-c3cc(C(=O)O)c4cnn(Cc5ccncc5)c4n3)cc2)cc1` [Compound 68], the “fold less potent than 67 toward BasE” value ([1]; relative to p-benzyloxy 67) is reported as 21 fold.

In the case of `O=C(O)c1cc(=O)[nH]c2c1cnn2Cc1ccncc1` [Compound 98, 6-Oxo-1-(pyridin-4-ylmethyl)-6,7-dihydro-1H-pyrazolo[3,4-b]pyridine-4-carboxylic acid], the “fold loss of affinity/potency toward BasE relative to 15” value [1] is reported as over 2800 fold.

For “22-O-{2-[2-(2-{[(fluorescein-5-yl)carbonyl]amino}ethoxy)ethoxy]ethoxy}-52-O-[N-(salicyl)sulfamoyl]adenosine [Compound 14]”, the Kd [2] is listed as 84.3 nM.

For `O=C(O)c1ccc(-c2cc(C(=O)O)c3cnn(Cc4ccncc4)c3n2)cc1` [Compound 58], the “fold loss of affinity/potency toward BasE relative to 15” value [1] was “over 20 fold” and the “fold loss of affinity toward MbtA relative to 15” value [3] was 2 fold.

In the case of `C=Cc1cc(C(=O)O)c2cnn(Cc3ccncc3)c2n1` [Compound 91], the “fold loss of affinity/potency toward BasE relative to 15” value [1] is reported as ~ 55 fold.

For `O=C(O)c1cc(-c2ccc(-c3ccccc3)cc2)nc2c1cnn2Cc1ccncc1` [Compound 72], the “fold loss of affinity/potency toward BasE relative to 15” value [1] was 3.5 fold.

In the case of `O=C(O)c1cc(-c2ccc(OCc3ccccc3)cc2)nc2c1cnn2Cc1ccncc1` [Compound 67], the Kd [1] is reported as 2 nM and < 10 nM and the “fold increase in affinity toward BasE relative to 15” value [1] is reported as 17 fold.

For `Cc1ccc(-c2cc(C(=O)O)c3cnn(Cc4ccncc4)c3n2)s1` [Compound 79], the Kd [1] was under 10 nM and the “fold increase in affinity toward BasE relative to 15” value [1] was 5 fold.

With `O=C(O)c1cc(-c2ccccc2O)nc2c1cnn2Cc1ccncc1` [Compound 40] the “fold loss of affinity/potency toward BasE relative to 15” value [1] was 7 fold.

For `O=C(O)c1cc(-c2ccccc2)nc2c1cnn2Cc1ccc(O)cc1` [Compound 32, 1-(4-Hydroxybenzyl)-6-phenyl-1H-pyrazolo[3,4-b]pyridine-4-carboxylic acid], the “fold loss of affinity/potency toward BasE relative to 15” value [1] was 15 fold.

With `CCOC(=O)c1cc(-c2ccccc2)nc2c1cnn2Cc1ccncc1` [Compound 18, Ethyl 6-phenyl-1-(pyridin-4-ylmethyl)-1H-pyrazolo[3,4-b]pyridine-4-carboxylate] the “fold loss of affinity/potency toward BasE relative to 15” value [1] was 60 fold.

With `O=C(O)c1cc(/C=C/c2ccccc2)nc2c1cnn2Cc1ccncc1` [Compound 92] the “fold loss of affinity/potency toward BasE relative to 15” value [1] was ~ 10 fold.

With `Nc1cc(-c2ccccc2)nc2c1cnn2Cc1ccncc1` [Compound 21, 6-Phenyl-1-(pyridin-4-ylmethyl)-1H-pyrazolo[3,4-b]pyridin-4-amine] the “fold loss of affinity/potency toward BasE relative to 15” value [1] was “approximately 6 fold”.

With `OCc1cc(-c2ccccc2)nc2c1cnn2Cc1ccncc1` [Compound 19, 4-Hydroxymethyl-6-phenyl-1-(pyridin-4-ylmethyl)-1H-pyrazolo[3,4-b]pyridine] the “fold loss of affinity/potency toward BasE relative to 15” value [1] was 2.8 fold and 3 fold.

For `Nc1ncnc2c1ncn2[C@@H]1O[C@H](COS(=O)(=O)NC(=O)c2cccc(O)c2O)[C@@H](O)[C@H]1O` [2,3-DHB-AMS, 5′-O-[N-(2,3-dihydroxybenzoyl)sulfamoyl]adenosine], the “activity against A. baumannii” value [4] is given as “no activity”, the “activity against K. pneumoniae” value [5] is given as “no activity” and the “activity against E. coli” value [6] is given as “no activity”. For the same compound, the “activity against P. aeruginosa” value [7] was “no activity”.

For `O=C(O)c1cc(-c2cccs2)nc2c1cnn2Cc1ccncc1` [Compound 76], the “fold loss of affinity/potency toward BasE relative to 15” value [1] was ~ 10 fold.

In the case of `O=C(O)c1cc(-c2ccccc2)cc2c1ccn2Cc1ccncc1` [Compound 17, 6-Phenyl-1-(pyridin-4-ylmethyl)-1H-indole-4-carboxylic acid], the “fold loss of affinity/potency toward BasE relative to 15” value [1] is reported as 1400 fold.

In the case of `O=C(O)c1cc(-c2ccccc2)cc2nn(Cc3ccncc3)cc12` [Compound 99, 6-Phenyl-2-(pyridin-4-ylmethyl)-2H-indazole-4-carboxylic acid], the “fold loss of affinity/potency toward BasE relative to 15” value [1] is reported as 1800 fold and the “fold loss of affinity toward MbtA relative to 15” value [3] is reported as 15.5 fold.

In the case of `O=C(O)c1cc(-c2ccccc2)cc2c1cnn2Cc1ccncc1` [Compound 16, 6-Phenyl-1-(pyridin-4-ylmethyl)-1H-indazole-4-carboxylic acid], the “fold loss of affinity/potency toward BasE relative to 15” value [1] is reported as 2 fold.

In the case of `O=C(O)c1cc(-c2cncc3ccccc23)nc2c1cnn2Cc1ccncc1` [Compound 86], the “fold loss of affinity/potency toward BasE relative to 15” value [1] is reported as 215 fold.

In the case of `O=C(O)c1cc(C#Cc2ccccc2)nc2c1cnn2Cc1ccncc1` [Compound 94, 6-(Phenylethynyl)-1-(pyridin-4-ylmethyl)-1H-pyrazolo[3,4-b]pyridine-4-carboxylic acid], the “fold loss of affinity/potency toward BasE relative to 15” value [1] is reported as ~ 10 fold.

In the case of `CC(=O)Nc1ccc(-c2cc(C(=O)O)c3cnn(Cc4ccncc4)c3n2)cc1` [Compound 54], the “fold loss of affinity/potency toward BasE relative to 15” value [1] is reported as “over 20 fold”.

For `NC(=O)c1cc(-c2ccccc2)nc2c1cnn2Cc1ccncc1` [Compound 22, 6-Phenyl-1-(pyridin-4-ylmethyl)-1H-pyrazolo[3,4-b]pyridine-4-carboxamide], the “fold loss of affinity/potency toward BasE relative to 15” value [1] was 1.8 fold and 2 fold.

In the case of `Cc1ccsc1-c1cc(C(=O)O)c2cnn(Cc3ccncc3)c2n1` [Compound 77], the “fold loss of affinity/potency toward BasE relative to 15” value [1] is reported as 9 fold.

With `O=C(O)c1cc(-c2ccc3[nH]ccc3c2)nc2c1cnn2Cc1ccncc1` [Compound 87] the “fold loss of affinity/potency toward BasE relative to 15” value [1] was 1.7 fold.

In the case of `C#Cc1cc(C(=O)O)c2cnn(Cc3ccncc3)c2n1` [Compound 93, 6-Ethynyl-1-(pyridin-4-ylmethyl)-1H-pyrazolo[3,4-b]pyridine-4-carboxylic acid], the “fold loss of affinity/potency toward BasE relative to 15” value [1] is reported as ~ 55 fold.

With `Cc1csc(-c2cc(C(=O)O)c3cnn(Cc4ccncc4)c3n2)c1` [Compound 78] the “fold loss of affinity/potency toward BasE relative to 15” value [1] was 2.4 fold.

For `COc1ccc(-c2cc(C(=O)O)c3cnn(Cc4ccncc4)c3n2)cc1` [Compound 62], the “fold loss of affinity/potency toward BasE relative to 15” value [1] was 2.2 fold.

For `Cc1ccc(-c2cc(C(=O)O)c3cnn(Cc4ccncc4)c3n2)cc1` [Compound 39], the “fold increase in affinity toward MbtA relative to 15” value ([3]; ratio of KD of lead compound 15 to compound) was 2.6 fold.

In the case of `O=C(c1ccccc1)c1ccc(-c2cc(C(=O)O)c3cnn(Cc4ccncc4)c3n2)cc1` [Compound 70], the Kd [1] is reported as 19 nM and the “fold increase in affinity toward BasE relative to 15” value [1] is reported as 2 fold.

For `Nc1ccc(-c2cc(C(=O)O)c3cnn(Cc4ccncc4)c3n2)cc1` [Compound 52], the “fold loss of affinity/potency toward BasE relative to 15” value [1] was 2.2 fold.
